# Where two headings read alike, the source gives them in different places.
# Columns and labels:
# LTP in hippocampal CA1 = assay: LTP in hippocampal slices by field recordings; type: cell-based; conditions: 10 μM, high-frequency burst, rat hippocampal slices
# [1] = test system: NMDAR-mediated component of the EPSC; assay: Evoked EPSCs in hippocampal autapses, whole-cell recording; type: cell-based, rat
# developing cerebrocortex = assay: Cerebrocortical apoptosis by TUNEL in neonatal rats; type: in vivo; conditions: P7 rat pups, loading dose, 24 h later
# [2] = test system: spontaneously hypertensive rats (SHR); assay: Physiological parameters during stroke; type: in vivo, rat; conditions: loading dose, n = 18 SHR
# [3] = design: method as in PMID 19915593; conditions: memantine 90.3 μmol/kg loading, 4.63 μmol/kg maintenance; cited from earlier work
# [4] = molecular target: NMDA-evoked currents in primary rat cortical neurons (Rattus norvegicus, UniProt P35439); assay: Whole-cell patch clamp of NMDA-evoked currents in primary rat cortical neurons; type: cell-based; conditions: 5 μM, −75 mV and +30 mV
# [5] = test system: spontaneously hypertensive rats (SHR); assay: tMCAO/R focal cerebral ischemia, infarct size by TTC staining; type: in vivo, rat; conditions: for histological protection (infarct size) at equimolar dose: MFD of NitroMemantine (65.8 μmol/kg loading, 3.29 μmol/kg maintenance); for histological protection (infarct, TTC staining): loading i.p. 2-h post occlusion: memantine 90.3 μmol/kg, NitroMemantine 65.8 μmol/kg, maintenance 12 h later, sacrificed at 24 h
# Experimental: Because of their known propensity to stroke, similar to human patients with hypertension, we used spontaneous hypertensive rats (SHR, Harlan) to induce tMCAO/R with the intraluminal suture method. Male 200–300 g SHR were anesthetized with 3% isoflurane in 30% oxygen/70% nitrous oxide using an anesthetic vaporizer and flowmeter. Body temperature was maintained at 37 °C with a homeothermic temperature system. A laser Doppler monitor was used to monitor relative cerebral blood flow (rCBF) during the surgical procedure and recovery. rCBF measurements were made immediately after anesthesia, after occlusion of the MCA, just before, and immediately after withdrawal of the suture to initiate reperfusion. To initiate a stroke, a midline incision was made to expose the right common carotid, external carotid, and internal carotid arteries. The occipital artery branches of the external carotid artery were isolated and along with the terminal lingual and maxillary artery branches coagulated with an electrocautery unit. The internal carotid artery was isolated and carefully separated from the adjacent vagus nerve. The pterygopalatine artery was ligated close to its origin, two loosely tied sutures placed around the external carotid artery stump, and a microaneurysm clip applied to the external carotid artery near its bifurcation with the internal carotid artery. A small puncture opening was made in the external carotid artery, a monofilament (intraluminal suture) inserted through the opening, and the sutures tightened around the lumen containing the filament. The microaneurysm clip was removed from the external carotid artery and the monofilament gently advanced from the lumen of the external carotid artery into the internal carotid artery for a distance of ~19 to 20 mm beyond the bifurcation of the common carotid artery until the blood flow dropped (≥80% reduction by rCBF measurement). The suture around the external carotid artery stump was tightened to prevent bleeding. After 2 h, sutures were removed, the filament withdrawn and the incision sutured removed, with rCBF recovering at least 75% at reperfusion. Just prior to reperfusion, rats were administered memantine, NitroMemantine, or memantine-OH via i.p. injection in saline vehicle or an equivalent volume of vehicle alone. […] Maintenance doses (4.63 μmol/kg of memantine and 3.29 μmol/kg of NitroMemantine, equivalent to 1 mg/kg or each) were administered 12 h after the loading dose. […] In subsequent experiments, equimolar memantine, NitroMemantine YQW-036, or memantine-OH was used using the lower NitroMemantine dose described above. The rodents were sacrificed 24-h post occlusion, and the size of brain infarct was evaluated histologically by 2,3,5-triphenyl-2H-tetrazolium chloride (TTC) staining.
# [6] = test system: NMDAR-operated ion channel; conditions: cited from earlier work
# Aqueous solubility = type: physicochemical
# [7] = molecular target: GluN1(N616R)/GluN2A channels (Homo sapiens, UniProt Q05586+Q12879, N616R); assay: Oocyte voltage clamp, redox effect on memantine binding site mutant; type: cell-based; conditions: for effect of GluN1(N616R) mutation on inhibition of current via S-nitrosylation: 200 µM
# Experimental: (§1) Two-electrode voltage clamp recordings at −60 or −70 mV were made on oocytes in frog Ringer’s solution two to seven days after injection of NMDAR subunits. Recordings were performed with an Oocyte Clamp OC-725b amplifier (Warner Instrument Corporation, Hamden, CT) using MacLab version 3.5 software (AD Instruments, Milford, MA) at room temperature. […] Both electrodes were filled with 3 M KCl. A solution containing 90 mM NaCl, 1 mM KCl, 10 mM HEPES, 1.5 mM BaCl2, and 10–100 μM glycine, pH 7.5 was used to continuously superfuse the oocytes. Barium, rather than calcium, was used as the divalent cation in order to minimize secondary activation of Ca^2+-activated Cl^− current. In some experiments, 1.2 mM MgCl2 was added to the bath solution. Drugs were dissolved in frog Ringer’s solution and applied by superfusion at a 2 ml/min flow rate. In some cases, to achieve relatively rapid solution exchange, we used an array of pipettes similar to the “sewer pipe” system used in patch-clamp recording. Perfusion artifacts were digitally removed from the traces.
# Mutant NMDAR subunits were prepared using the Chameleon^TM double-stranded site-directed mutagenesis kit (Stratagene) according to the manufacturer’s instructions. The entire coding region was sequenced to verify the mutation.
# [8] = molecular target: recombinant GluN1/GluN2A receptors (Homo sapiens, UniProt Q05586+Q12879); assay: Two-electrode voltage clamp of oocytes, channel block of NMDA-induced current; type: cell-based; conditions: for steady-state channel block of NMDA current: 10 μM (equimolar), Vh −70 mV; for IC50: steady-state, short-term drug addition, holding potential −70 mV, nominal absence of extracellular Mg2+, read-out: IC50 of inhibiting NMDA-induced current
# Experimental: […] Recordings were performed with an Oocyte Clamp OC-725b amplifier (Warner Instrument Corporation, Hamden, CT) using MacLab version 3.5 software (AD Instruments, Milford, MA) at room temperature. […] Both electrodes were filled with 3 M KCl. A solution containing 90 mM NaCl, 1 mM KCl, 10 mM HEPES, 1.5 mM BaCl2, and 10–100 μM glycine, pH 7.5 was used to continuously superfuse the oocytes. Barium, rather than calcium, was used as the divalent cation in order to minimize secondary activation of Ca^2+-activated Cl^− current. In some experiments, 1.2 mM MgCl2 was added to the bath solution. Drugs were dissolved in frog Ringer’s solution and applied by superfusion at a 2 ml/min flow rate. In some cases, to achieve relatively rapid solution exchange, we used an array of pipettes similar to the “sewer pipe” system used in patch-clamp recording. Perfusion artifacts were digitally removed from the traces.
# [9] = test system: spontaneously hypertensive rats (SHR); assay: Morris water maze; type: in vivo, rat; conditions: neuroprotective doses: 65.8 μmol/kg loading i.p., 3.29 μmol/kg every 12 h
# Experimental: Adult male spontaneously hypertensive rats (SHR) were treated with either PBS or NitroMemantine (65.8 μmol/kg loading dose, i.p., followed by a 3.29 μmol/kg maintenance dose every 12 h). Each group was comprised of five rats (n = 5). Treatment for both groups commenced 48 h prior to the first day of testing. Both the treatment and water-maze testing were conducted in a blinded fashion. The water maze consisted of a circular pool 150 cm in diameter and 85 cm deep. The pool was filled to cover a moveable platform, black in color, by 1 cm of water. The water was made opaque via the addition of black paint and maintained at room temperature (20–23 °C) for the duration of the five days of testing. A white pool with black water allowed the video camera to successfully track the white rats with maximum contrast. On day 1, the rats were placed in the pool with no platform for 60 s of acclimation. Days 2 through 5 were used for testing. Starting on day 2 and continuing to day 5, rats were trained for 24 total trials (six trials/day) to locate and reach the submerged platform. The platform was kept in the same location for all trials in each session (day), but changed from session to session in a pre-determined order, yielding four unique locations in all. In addition, there were four possible release locations (the four cardinal compass directions at the pool’s perimeter). […]
# SNO-GluN1 and SNO-Drp1 = assay: Biotin switch assay of S-nitrosylated proteins in brain after stroke; type: in vivo, rat; conditions: SHR, loading dose 2-h post occlusion, sacrificed 90 min thereafter
# Experimental: Analysis of S-nitrosylation of NMDA receptors in rat brain was performed by the biotin switch assay, as previously described[48][49]. Free thiols in tissue lysates were blocked with methyl-methanethiosulfonate. Proteins were then precipitated with acetone and resuspended in HEN buffer (250 mM HEPES, pH 7.4, 1 mM EDTA, 0.1 mM neocuproine) plus 1% sodium dodecyl sulfate. Ascorbate was used to selectively reduce nitrosothiols in order to reform free thiol groups, which were subsequently biotinylated using 1 mM biotin-HPDP (Pierce, Rockford, IL). Parallel reactions were performed without ascorbate as a control to ensure specificity of the biotinylated bands. Biotinylated proteins were captured on streptavidin-agarose beads and analyzed by immunoblotting.
# GluN1/GluN2A NMDARs = assay: Oocyte voltage clamp, redox (S-nitrosylation) mediated inhibition of NMDA-evoked current; type: cell-based
# Experimental: as §1
# [10] = test system: spontaneously hypertensive rats (SHR); assay: Neurological/behavioral score after tMCAO/R; type: in vivo, rat; conditions: same doses as histology (memantine 90.3, NitroMemantine 65.8 μmol/kg loading), 24-h post stroke
# Excerpt: Each adult animal underwent a neurologic evaluation[51] immediately after filament removal and again 1 day after reperfusion (prior to sacrifice). Each animal was assigned an objective behavioral score of 0–4: 0 representing no observable neurological deficit; 1 failure to extend the left forepaw; 2 circling to the left; 3 falling to the left; 4 cannot walk spontaneously. The scores obtained 24-h post stroke were averaged for each time point of each treatment group and presented as the neurological score.
# recombinant GluN1/GluN2A receptors, sequence (Q12879 23-1464, other chains not shown): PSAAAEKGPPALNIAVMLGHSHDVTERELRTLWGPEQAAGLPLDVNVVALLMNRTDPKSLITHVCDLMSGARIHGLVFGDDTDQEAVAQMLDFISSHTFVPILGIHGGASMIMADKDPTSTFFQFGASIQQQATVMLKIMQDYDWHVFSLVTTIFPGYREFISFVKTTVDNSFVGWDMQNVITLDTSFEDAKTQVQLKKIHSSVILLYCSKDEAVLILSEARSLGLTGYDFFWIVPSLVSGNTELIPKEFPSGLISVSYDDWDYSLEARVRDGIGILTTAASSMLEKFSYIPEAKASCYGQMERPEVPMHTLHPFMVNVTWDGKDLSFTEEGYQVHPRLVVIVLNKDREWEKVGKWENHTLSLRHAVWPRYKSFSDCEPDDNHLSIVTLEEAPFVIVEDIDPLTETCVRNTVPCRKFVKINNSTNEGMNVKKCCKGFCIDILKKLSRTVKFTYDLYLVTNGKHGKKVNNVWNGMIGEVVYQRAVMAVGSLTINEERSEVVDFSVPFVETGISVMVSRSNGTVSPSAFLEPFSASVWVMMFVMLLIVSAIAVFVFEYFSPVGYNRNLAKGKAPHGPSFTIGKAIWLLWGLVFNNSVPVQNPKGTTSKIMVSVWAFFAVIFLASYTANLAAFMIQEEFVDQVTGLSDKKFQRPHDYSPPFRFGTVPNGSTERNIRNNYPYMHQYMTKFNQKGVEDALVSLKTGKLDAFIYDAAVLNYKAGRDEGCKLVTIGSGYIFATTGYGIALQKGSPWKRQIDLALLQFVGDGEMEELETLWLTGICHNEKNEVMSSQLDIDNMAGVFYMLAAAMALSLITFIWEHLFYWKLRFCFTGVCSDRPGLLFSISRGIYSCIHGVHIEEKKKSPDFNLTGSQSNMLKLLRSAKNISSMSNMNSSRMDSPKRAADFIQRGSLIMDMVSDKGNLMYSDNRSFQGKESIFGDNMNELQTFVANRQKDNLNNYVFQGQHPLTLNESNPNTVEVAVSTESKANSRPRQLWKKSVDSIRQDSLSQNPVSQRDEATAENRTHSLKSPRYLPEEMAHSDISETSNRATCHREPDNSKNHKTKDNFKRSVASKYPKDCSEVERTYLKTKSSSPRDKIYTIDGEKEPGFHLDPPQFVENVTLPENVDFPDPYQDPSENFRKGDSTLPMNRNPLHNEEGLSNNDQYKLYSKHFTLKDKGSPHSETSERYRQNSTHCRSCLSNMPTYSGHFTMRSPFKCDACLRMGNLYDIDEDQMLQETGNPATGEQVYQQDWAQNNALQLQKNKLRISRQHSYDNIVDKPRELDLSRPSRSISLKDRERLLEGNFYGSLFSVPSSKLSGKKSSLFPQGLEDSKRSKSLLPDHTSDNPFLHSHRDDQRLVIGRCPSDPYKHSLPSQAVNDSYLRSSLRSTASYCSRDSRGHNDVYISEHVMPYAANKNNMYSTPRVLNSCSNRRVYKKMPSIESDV
# GluN1(N616R)/GluN2A channels, sequence (Q12879 23-1464, other chains not shown): as above
smiles,measurement,setting,value
"C[C@]12N[C@H](Cc3ccccc31)c1ccccc12 [MK-801, reference compound]",effect on LTP induction,LTP in hippocampal CA1,completely inhibited LTP induction
"N[C@H](CCCP(=O)(O)O)C(=O)O [D-AP5, (2R)-amino-5-phosphonopentanoate]",block of NMDAR component of the EPSC,"[1]; 50 μM, control",completely blocked
CC12CC3CC(C)(C1)CC(N)(C3)C2 [memantine],cerebrocortical neuronal apoptosis (TUNEL),developing cerebrocortex,do not cause
same,"physiological parameters (temperatures, blood pressure, metabolic panel)",[2],not significantly affected
same,concentration at the mouth of the NMDAR-associated ion channel,[3],5 to 10 µM
same,"blockade of NMDA-evoked current, voltage dependence",[4],approximately equivalent degree of blockade at both –75 mV and less blockade at +30 mV
same,histological protection (infarct size) at equimolar dose,[5],no significant protection
same,"histological protection (infarct, TTC staining)",[5],offer histological protection
same,IC50,[6],500 to 1000 nM
same,block of NMDAR-mediated component of the EPSC,[1],blocks neurotransmission to a greater degree than NitroMemantine
same,change of EPSC blockade with repeated electrical stimulation (pulses 1–10),[1],use-dependent
CCCC12CC3(N)CC(CCC)(C1)CC(O[N+](=O)[O-])(C3)C2 [YQW-037],aqueous solubility,Aqueous solubility,cannot be dissolved in aqueous solutions
"N[C@@H](CSN=O)C(=O)O [SNOC, S-nitrosocysteine, reference compound]",effect of GluN1(N616R) mutation on inhibition of current via S-nitrosylation,[7],did not affect inhibition
CC12CC3(C)CC(N)(C1)CC(O[N+](=O)[O-])(C2)C3 [YQW-035],effect of GluN1(N616R) mutation on inhibition of current via S-nitrosylation,[7],eliminated inhibition
same,steady-state channel block of NMDA current,[8],less channel block than memantine but more than amantadine
same,IC50,[8],6300 nM
CCC12CC3(N)CC(CC)(C1)CC(O[N+](=O)[O-])(C3)C2 [YQW-036],cerebrocortical neuronal apoptosis (TUNEL),developing cerebrocortex,do not cause
same,Morris water maze performance,[9],not affected
same,redox-mediated activity on GluN1(N616R) mutant,[7]; 100 μM,abrogated
same,aqueous solubility,Aqueous solubility,lower solubility in aqueous solution
same,"physiological parameters (temperatures, blood pressure, metabolic panel)",[2],not significantly affected
same,S-nitrosylation of Drp1 (SNO-Drp1),SNO-GluN1 and SNO-Drp1,not significantly affected
same,"S-nitrosylation of the GluN1 subunit (SNO-GluN1), ipsilateral to stroke",SNO-GluN1 and SNO-Drp1,significant increase
same,"blockade of NMDA-evoked current, voltage dependence",[4],approximately equivalent degree of blockade at both –75 mV and less blockade at +30 mV
same,inhibition of NMDA-evoked current under conditions used to observe S-nitrosylation,"GluN1/GluN2A NMDARs; 100 μM, Vh −60 mV",inhibited NMDA-evoked current
same,prolonged inhibitory effect after prior MTSEA or mutation of redox-active cysteines,GluN1/GluN2A NMDARs; prior addition of MTSEA or mutation of redox-active cysteines in the NMDAR,largely abrogated
same,histological protection (infarct size) at equimolar dose,[5],significant benefit
same,"histological protection (infarct, TTC staining)",[5],protected to a greater extent than memantine
same,"histological protection (infarct, TTC staining)",[5]; listed as NitroMemantine,offer histological protection
same,steady-state channel block of NMDA current,[8],approximately the same degree as memantine
same,inhibition of NMDA-evoked current in the presence of extracellular Mg2+,"[8]; 10 µM, 1.2 mM Mg2+, NMDA 100 µM, holding potential −40 mV",inhibited
same,IC50,[8],2400 nM
same,change of EPSC blockade with repeated electrical stimulation (pulses 1–10),[1]; 10 μM,did not significantly increase
same,block of NMDAR-mediated component of the EPSC,"[1]; 10 μM, 20 μM CNQX present",blocked to a lesser extent
same,effect on LTP induction,LTP in hippocampal CA1,did not inhibit LTP
same,neurological/behavioral score,[10],showed a protective effect
"NC12CC3CC(CC(C3)C1)C2 [amantadine, reference compound]",steady-state channel block of NMDA current,[8],inhibited less NMDA current at steady state than equimolar memantine
